Patent EP0461264A1, “ETHYNYLPHENYL DERIVATIVE, PRODUCTION THEREOF, AND REMEDY FOR DISEASES OF CIRCULATORY ORGANS CONTAINING THE SAME AS ACTIVE INGREDIENT” (KAKEN PHARMACEUTICAL CO., LTD., priority 1989, dated 1991)
Counter-ions that a name gives are not always drawn. Like-named read-outs stand apart in the source and are kept apart here.

Columns and labels:
[1] = tested on: convulsion caused by pentylenetetrazole; assay: Activity against convulsion caused by pentylenetetrazole (Test Example 6); assay type: in vivo, Slc: ddy male mice; conditions: summary of Table 4
Description: Slc: ddy male mice weighing 24 to 32 g (5 weeks) were bred under an environment of 22° to 24° C room temperature and 60 % humidity for 1 week, and then the bred mice were subjected to a test. The test was carried out as the following procedure. One hour after the oral administration of a test compound, 40 mg/kg of pentylenetetrazole was administered in a caudal vein. Appearance of tonic extensive convulsion was measured as an indication, and anticonvulsive activity was examined. Each test compound was suspended in a 0.5 % solution of methyl cellulose, which was used for a control group.

[2] = tested on: spontaneously hypertensive rats; assay: Activity against blood pressure (Test Example 1-1), tail-cuff measurement after oral administration; assay type: in vivo; conditions: Rattus norvegicus
Description: Male spontaneously hypertensive rats (20 to 30 weeks) were employed. After being heated in a heating box at 45 ° C for about 5 minutes, the rats were put in holders for measuring blood pressure, and blood pressure cuffs were set on the rats. After the rat's heart rate was stabilized, blood pressure of each rat was measured by a sphygmomanometer for rat (8002e, made by W + W Co., Ltd.) before the administration, and one hour, three hours and six hours after the administration. Each test compound dissolved in a 0.5 % solution of methyl cellulose was administered orally in a volume of 5 mℓ/kg.
Change of the blood pressure was calculated by the following formula.
(§1) Change rate (%) = [(Measured value after administration - Measured value before administration)/Measured value before administration] x 100

angiotensin II = assay: Inhibitory activity against angiotensin II, constriction response of ileum preparations (Test Example 5); assay type: cell-based, Hartrey male guinea pigs
Description: From Hartrey male guinea pigs weighing about 500 g, ileum preparations were prepared. […] Thereinto 3 x 10^-8M of angiotensin II was added and constriction response of each preparation was measured through a isometoric transducer (made by Nihon Koden Kogyo Co., Ltd.). Before the addition of angiotensin II, a compound of the present invention or saralasin was previously added into a Magnus trough. Contractive responses in both cases were compared and Inhibition rate was calculated by the following formula.
Angiotensin II Inhibition rate = (1 - Tension in case of adding test compound/Tension of control) x 100

[3] = tested on: Spontaneous hypertensive male rats; assay: Duration of blood pressure reduction activity (Test Example 1-2), direct aortic pressure without anesthesia; assay type: in vivo; conditions: oral, 3 mg/kg or 10 mg/kg, Figure 1
Description: Spontaneous hypertensive male rats (35 weeks) were employed. Before the day the test was carried out, rats were anesthetized with ether, and then, a polyethylene tube was inserted into an aorta abdominalis of the each rat. The other end of the polyethylene tube was led out of the rat's body, and the led polyethylene tube was connected with a pressure transducer. Blood pressure of each rat was measured by a polygraph (RM-85, made by Nihon Koden Kohgyo Co., Ltd.) without anesthesia before the administration, at intervals of one hour for eight hours after the administration and 24 hours after the administration.
Each test compound disolved in a 0.5 % solution of methyl cellulose was administered orally in a volume of 5 m í/kg and in a dose of 3 mg/kg or 10 mg/kg.
As is clear from Figure 1, blood pressure reduction activity of the compound No. 1 lasted for at least eight hours.

[4] = Acute toxicity (Test Example 7); conditions: rat, in vivo; oral administration, death rate after 7 days; read-out: Rat LDso
Description: In each group 5 Slc: Wistar male rats weighing 100 g to 114 g (4 weeks) were employed. The compound No. 1 was administered orally thereto and with death rate after 7 days a value of acute toxicity was measured.
Rat LDso = 300 to 1000 mg/kg (oral administration)

[5] = tested on: model of vasopressin myocardial ischemia; assay: Activity against a model of vasopressin myocardial ischemia (ST wave depression, Test Example 3); assay type: in vivo, Donryu strain male rats; conditions: intravenous, five minutes before vasopressin 0.3 µg/kg, compared with nicardipine or nifedipine, Figure 3
Description: In accordance with a method of Hiramatu et al. (Japanese Journal Pharmacology 20,313 to 324,1970), Donryu strain male rats weighing 142 to 265 g were employed. Rats were anesthetized by intraperitoneally administering 60 mg/kg of pentobarbital sodium. After intravenous administration of 0.3 µg/kg of vasopressin, electrocardiogram (lead II) was recorded every one minute for five minutes. The maximum depression of ST wave in electrocardiogram was measured as an indication of myocardial ischemia. Five minutes before the administration of vasoperessin, each test compound dissolved in a mixted solution containing 20 % of propylen glycol and 5 % of glucose, was administered intravenously in a dose of 1 mt/kg.

[6] = tested on: atrioventricular conduction system; conditions: rat, in vivo, iv
[7] = tested on: left circumflex coronary artery and right vertebral artery blood flow; assay: Activity against blood flow in anesthetized dogs (Test Example 4); assay type: in vivo, Beagle dogs; conditions: intravenous, compared with nicardipine or nimodipine, Figure 4
Description: Beagle dogs weighing 7 to 14 kg were employed, irrespective of sex. Dogs were anesthetized by intravenously administering 30 mg/kg of pentobarbital sodium (Nembutal). During the test […] of pentobarbital was injected continually into each dog. A endotracheal tube was inserted into each trachea. Incision was performed along the midline of the chest and a heart was exposed. Probes of a electromagnetic flowmeter (made by Nihon Koden Kohgyo Co., Ltd.) were set on a left circumflex coronary artery and a right vertebral artery. Each parameter was recorded simultaneously by polygragh (made by Nihon Koden Kogyo Co., Ltd.). […] Change of blood flow was calculated by the following Change rate.
as §1

[8] = 1 h, one hour after administration, read-out: Change rate of blood pressure 1 hr. value
[9] = 3 h, three hours after administration, read-out: Change rate of blood pressure 3 hr. value
[10] = 6 h, six hours after administration, read-out: Change rate of blood pressure 6 hr. value

Molecule: O=C1NC(=O)C(c2ccccc2)(c2ccccc2)N1 [Diphenylhidantoin, reference compound]
- anticonvulsive activity [1]: showing anticonvulsive activity

Molecule: C#Cc1cccc(C2C(C(=O)OC)=C(C)NC(C)=C2C(=O)OCCN2CCN(C(c3ccc(C)cc3)c3ccc(C)cc3)CC2)c1 (stereo not shown) [compound 5, 4-(3-ethynylphenyl)-3-methoxycarbonyl-2,6-dimethyl-5-(N-di-4-methyl-phenylmethylpiperazinylethoxycarbonyl)-1,4-dihydropyridine]
- change in vivo at 10 mg/kg [2, 8]: -41.5%
- change in vivo at 10 mg/kg [2, 9]: -41.5%
- change in vivo at 10 mg/kg [2, 10]: -29.2%

Molecule: Saralasin [reference compound]
- Angiotensin II Inhibition rate (%) (angiotensin II; Concentration 10^-7 M, 3 x 10^-8M angiotensin II): 47.3%

Molecule: C#Cc1cccc(C2C(C(=O)OC)=C(C)NC(C)=C2C(=O)OC(C)CN2CCN(C(c3ccccc3)c3ccccc3)CC2)c1 (stereo not shown) [compound 37, 4-(3-ethynylphenyl)-3-methoxycarbonyl-2,6-dimethyl-5-[2-(N-diphenyl-methylpiperazinyl)-1-methylethoxycarbonyl]-1,4-dihydropyridine]
- change in vivo at 30 mg/kg [2, 8]: -38.1%
- change in vivo at 30 mg/kg [2, 9]: -44.7%
- change in vivo at 30 mg/kg [2, 10]: -48.7%

Molecule: COCCOC(=O)C1=C(C)NC(C)=C(C(=O)OC(C)C)C1c1cccc([N+](=O)[O-])c1 (stereo not shown) [Nimodipine, isopropyl, 2-methoxyethyl 2,6-dimethyl-4-(3-nitrophenyl)-1,4-dihydropyridinedicarboxylate, reference compound]
- change in vivo at 10 mg/kg [2, 8]: -11%
- change in vivo at 10 mg/kg [2, 9]: -11%
- change in vivo at 10 mg/kg [2, 10]: -10.2%

Molecule: C#Cc1cccc(C2C(C(=O)OC)=C(C)NC(C)=C2C(=O)OCCN2CCN(C(c3ccc(F)cc3)c3ccc(F)cc3)CC2)c1 (stereo not shown) [compound 4, 4-(3-ethynylphenyl)-3-methoxycarbonyl-2,6-dimethyl-5-(N-di-4-fluorophenylmethylpiperazinylethoxycarbonyl)-1,4-dihydropyridine]
- change in vivo at 10 mg/kg [2, 8]: -41.2%
- change in vivo at 10 mg/kg [2, 9]: -40.9%
- change in vivo at 10 mg/kg [2, 10]: -35.7%

Molecule: C#Cc1cccc(C2C(C(=O)OCCN3CCN(C(c4ccccc4)c4ccccc4)CC3)=C(C)NC(N)=C2C(=O)OCC)c1 (stereo not shown) [compound 26, 4-(3-ethynylphenyl)-3-ethoxycarbonyl-2-amino-6-methyl-5-(N-diphenylmethylpiperazinylethoxycarbonyl)-1,4-dihydropyridine]
- change in vivo at 30 mg/kg [2, 8]: -38.8%
- change in vivo at 30 mg/kg [2, 9]: -43.8%
- change in vivo at 30 mg/kg [2, 10]: -41.5%

Molecule: C#Cc1cccc(C2C(C(=O)OC)=C(C)NC(C)=C2C(=O)OCCN2CCN(C(c3ccccc3)c3ccccc3)CC2)c1 (stereo not shown) [Compound No. 1, 4-(3-ethynylphenyl)-3-methoxycarbonyl-2,6-dimethyl-5-(N-diphenyl-methylpiperazinylethoxycarbonyl)-1,4-dihydropyridine]
- Duration of blood pressure reduction activity [3]: at least eight
- LD50 at 168 h [4]: 300 to 1000 mg/kg
- antimyocardial ischemia activity (maximum depression of ST wave) [5]: greater antimyocardial ischemia activity than that of nicardipine or nifedipine
- influence on artrioventricular conduction system (change rate of PQ interval) [6]: less influence on artrioventricular conduction system as compared with nicardipine
- activity for increasing coronary blood flow [7]: greater activity
- activity for increasing vertebral blood flow [7]: greater activity
- inhibition at 1 µM (angiotensin II; Cavia porcellus, Concentration 10^-6 M, 3 x 10^-8M angiotensin II, read-out: Angiotensin II Inhibition rate (%)): 71.1%
- inhibition at 0.1 µM (angiotensin II; Cavia porcellus, Concentration 10^-7 M, 3 x 10^-8M angiotensin II, read-out: Angiotensin II Inhibition rate (%)): 56.2%
- inhibition at 0.01 µM (angiotensin II; Cavia porcellus, Concentration 10^-8 M, 3 x 10^-8M angiotensin II, read-out: Angiotensin II Inhibition rate (%)): 6.5%
- Inhibitory activity against angiotension II (angiotensin II; compared with saralasin, positive control drug): the same extent of Inhibitory activity against angiotension II as that of saralasin
- change in vivo at 10 mg/kg [2, 8]: -39%
- change in vivo at 10 mg/kg [2, 9]: -45.2%
- change in vivo at 10 mg/kg [2, 10]: -43.3%
- anticonvulsive activity [1]: did not show the activity

Molecule: C#Cc1cccc(F)c1C1C(C(=O)OC)=C(C)NC(C)=C1C(=O)OCCN1CCN(C(c2ccccc2)c2ccccc2)CC1 (stereo not shown) [compound 2, 4-(2-ethynyl-6-fluorophenyl)-3-methoxycarbonyl-2,6-dimethyl-5-(N-diphenylmethylpiperazinylethoxycarbonyl)-1,4-dihydropyridine]
- change in vivo at 30 mg/kg [2, 8]: -25%
- change in vivo at 30 mg/kg [2, 9]: -22.5%
- change in vivo at 30 mg/kg [2, 10]: -10%

Molecule: C#Cc1cccc(C2C(C(=O)OC)=C(C)NC(C)=C2C(=O)OCCCN2CCN(c3ccccc3OC)CC2)c1 (stereo not shown) [compound 18, 4-(3-ethynylphenyl)-3-methoxycarbonyl-5-[3-(N-2-methoxyphenyl-piperazinyl)propoxycarbonyl]-2,6-dimethyl-1,4-dihydropyridine]
- change in vivo at 10 mg/kg [2, 8]: -5.3%
- change in vivo at 10 mg/kg [2, 9]: -12.4%
- change in vivo at 10 mg/kg [2, 10]: -14.3%

Molecule: COC(=O)C1=C(C)NC(C)=C(C(=O)OCCN(C)Cc2ccccc2)C1c1cccc([N+](=O)[O-])c1 (stereo not shown) [Nicardipine, 2-(N-benzyl-N-methylamino)ethyl, methyl 2,6-dimethyl-4-(3-nitrophenyl)-1,4-dihydropyridinedicarboxylate hydrochloride, reference compound]
- change in vivo at 10 mg/kg [2, 8]: -35%
- change in vivo at 10 mg/kg [2, 9]: -3.5%
- change in vivo at 10 mg/kg [2, 10]: -2%
